Results on seven compounds are retold here after US12304912B2, “Fused bicyclic RAF inhibitors and methods for use thereof” (Jazz Pharmaceuticals Ireland Limited, priority 2020, dated 2025).

Molecules are shown by their SMILES. Read-outs that look alike come from different tables or passages of the source.

Data set [1] in a line: Plasma protein binding assay, mouse plasma (mPPB). The class given is in vitro ADME. The conditions noted are these: 5 μM. On the procedure:
(§1) Plasma Protein Binding Assay The plasma protein binding was determined by the equilibrium dialysis method. A known concentration of compound (5 μM) in previously frozen human or mouse plasma (Sera Labs) was dialysed against phosphate buffer using a RED device (Life Technologies) for 4 hours at 37° C. The concentration of compound in the protein containing (PC) and protein free (PF) sides of the dialysis membrane were determined by LC-MS/MS and the % free compound was determined by equation 4. Data analysis was performed using Excel (Microsoft, USA). % free=(1−((PC−PF)/PC))×100 (4) hPPB (human plasma protein binding) and mPPB (mouse plasma protein binding) results are described in Tables 1-2.

A short description of data set [2]: Microsomal stability assay, human liver microsomes (HLM). Type of data set: in vitro ADME. The conditions noted are these: 0.5 mg/mL protein, 1 μM substrate. As for the experimental part:
(§2) Microsomal Stability Assay
(§3) The stability studies were performed manually using the substrate depletion approach. Test compounds were incubated at 37° C. with cryo-preserved mouse or human liver microsomes (Corning) at a protein concentration of 0.5 mg·mL^−1 and a final substrate concentration of 1 μM. Aliquots were removed from the incubation at defined timepoints and the reaction was terminated by adding to ice-cold organic solvent. Compound concentrations were determined by LC-MS/MS analysis. The natural log of the percentage of compound remaining was plotted against each time point and the slope determined. The half-life (t1/2) and CLint were calculated using Equations 1 and 2, respectively.
(§4) HLM (human liver microsomes) and MLM (mouse liver microsomes) stability assay results are described in Tables 1-2.

A short description of data set [3]: Microsomal stability assay, mouse liver microsomes (MLM). Type of data set: in vitro ADME. The conditions noted are these: 0.5 mg/mL protein, 1 μM substrate. As for the experimental part: as §2, §3, §4
The test system of data set [4] is RAF dimers in HCT-116 cells. In words: HCT-116 AlphaLISA SureFire pERK1/2 cellular assay (dimer). The class given is cell-based. To be noted: Homo sapiens, HCT-116, 1 hr. On the procedure:
(§5) The human HCT-116 colorectal carcinoma cell line (ATCC CCL-247) endogenously expresses the KRAS^G13D mutation, which leads to constitutive activation of the MAP kinase pathway and phosphorylation of ERK. […] Assay read outs took place 2 or 24 hours after dosing with compounds. On the first day, HCT-116 cells were harvested, resuspended in growth medium (McCoys5A with Glutamax (Life Technologies 36600021) and 10% heat-inactivated fetal bovine serum (Sigma F9665)), and counted. Cells were plated in 100 μl per well in each well of a 96-well culture dish (Sigma CLS3598) to a final density of 30,000 (2 hr read) or 15,000 (24 hr read) cells per well and incubated over night at 37° C. and 5% CO2. On day 2, the growth medium was exchanged for dosing medium (McCoys5A with Glutamax (Life Technologies 36600021) and 1% heat-inactivated fetal bovine serum (Sigma F9665)) and the cells were dosed with compounds to produce a 10-point dose response, where the top concentration was 1 μM and subsequent concentrations were at 1/3 log dilution intervals. A matched DMSO control was included. The cells were subsequently incubated for either 2 or 24 hours at 37° C. and 5% CO2. After incubation, media was removed and the cells were incubated with lysis buffer containing phosphatase inhibitors for 15 minutes at room temperature. Cell lysates were transferred to a 12 area 96 well white Optiplate™ (Perkin Elmer 6005569) and incubated with anti-mouse IgG acceptor beads, a biotinylated anti-ERK1/2 rabbit antibody recognizing both phosphorylated and non-phosphorylated ERK1/2, a mouse antibody targeted to the Thr202/Tyr204 epitope and recognizing phosphorylated ERK proteins only, and streptavidin-coated donor beads. The biotinylated antibody binds to the streptavidin-coated donor beads and the phopsho-ERK1/2 antibody binds to the acceptor beads. Plates were read on an EnVision reader (Perkin Elmer) and excitation of the beads at 680 nm with a laser induced the release of singlet oxygen molecules from the donor beads that trigger energy transfer to the acceptor beads in close proximity, producing a signal that can be measured at 570 nm. Both antibodies bound to phosphorylated ERK proteins, bringing the donor and acceptor beads into close proximity. All data were analyzed using the Dotmatics or GraphPad Prism software packages. Inhibition of ERK phosphorylation was assessed by determination of the absolute IC50 value, which is defined as the concentration of compound required to decrease the level of phosphorylated ERK proteins by 50% when compared to DMSO control.
HCT-116 AlphaLISA SureFire pERK1/2 Cellular Assay (Dimer)
The human HCT-116 colorectal carcinoma cell line (ATCC CCL-247) endogenously expresses the KRAS^G13D mutation, which leads to constitutive activation of the MAP kinase pathway and phosphorylation of ERK. First generation RAF inhibitors can promote RAF dimer formation in KRAS mutant tumours leading to a paradoxical activation of the pathway. To determine whether compounds can circumvent this problem and inhibit RAF dimers in HCT-116 cells, they were tested using AlphaLISA® SureFire® technology (Perkin Elmer p-ERK1/2 p-T202/Y204 assay kit ALSU-PERK-A10K). The main procedure is essentially the same as described above, with the following adjustments: Cells were seeded with the seeding density of 30,000 cells per well. On the second day (the day of dosing) no medium change was performed and the cells were dosed with 1 μM of Encorafenib for 1 hour (at 37° C. and 5% CO2) to induce RAF dimers and promote paradoxical dimer-dependent pERK signalling. After incubation, the cells were washed, 100 μl fresh growth medium was added, and cells were dosed with compounds of interest to produce a 10-point dose response, where the top concentration was 10 μM and subsequent concentrations are at 1/2 log dilution intervals. Cells were incubated for another hour at 37° C. and 5% CO2 before lysis and processing with the pERK AlphaLISA® SureFire® kit as described above. […]
For orientation: In Alpha technology, singlet oxygen from a donor bead excites a nearby acceptor bead.

Data set [5] in a line: Plasma protein binding assay, human plasma (hPPB). To be noted: 5 μM. Type of data set: in vitro ADME. On the procedure:
as §1

For data set [6], the system named is BRAF monomers in A375 cells. The experiment in a line: A375 AlphaLISA SureFire pERK1/2 cellular assay (monomer). The class given is cell-based. The conditions noted are these: Homo sapiens, A-375; A375 cells, 1 hr; read-out: pERK A375 (1 hr) pIC50 (converted). As for the experimental part:
as §5
A375 AlphaLISA SureFire pERK1/2 Cellular Assay (Monomer)
The human A375 melanoma cell line (ATCC CRL-1619) endogenously expresses the BRAF^V600E mutation, which leads to constitutive activation of the MAP kinase pathway and phosphorylation of ERK. In BRAF^V600E mutant tumours, BRAF signals as a monomer to activate ERK. To determine whether compounds can inhibit BRAF monomers in A375 cells, they were tested using AlphaLISA® SureFire® technology (Perkin Elmer p-ERK1/2 p-T202/Y204 assay kit ALSU-PERK-A10K). The main procedure is essentially the same as described above for HCT-116 cells, with the following adjustments: The A375 cells were cultivated and dosed in Dulbecco's modified Eagle's medium containing 4.5 g/L D-glucose (Sigma D6546), 10% heat-inactivated fetal bovine serum (Sigma F9665), and 1% Sodium-Pyruvate (Sigma S8636), and seeded with a seeding density of 30,000 cells per well. No media exchange was performed before dosing with compounds to produce a 10-point dose response, where the top concentration was 10 μM and subsequent concentrations were at 1/2 log dilution intervals. Subsequently, the cells were incubated for 1 hour at 37° C. and 5% CO2 before lysis.

Data set [7] relates to constitutive ERK phosphorylation in HCT-116 cells. The experiment in a line: HCT-116 AlphaLISA SureFire pERK1/2 cellular assay. To be noted: Homo sapiens, HCT-116; HCT116 cells, 2 hr, Abs; read-out: pERK HCT116 (2 hr) Abs pIC50 (converted). Type of data set: cell-based, human. On the procedure:
as §5, with “HCT-116” for “The human HCT-116”, “AlphaLISA SureFire pERK1/2 Cellular Assay […]” for “colorectal carcinoma cell line (ATCC CCL-247) endogenously expresses the KRAS^G13D mutation, which leads to constitutive activation of the MAP kinase pathway and phosphorylation of ERK.”, “Plates were read on an EnVision reader (Perkin Elmer) and excitation of the beads at 680 nm with a laser induced the release of singlet oxygen molecules from the donor beads that trigger energy transfer to the acceptor beads in close proximity, producing a signal that can be measured at 570 nm.” left out

A further data set in a line: FeSSIF solubility assay. Type of data set: physicochemical. The conditions noted are these: fed state simulated intestinal fluid (FeSSIF), thermodynamic from solid, pH 5 acetate buffer, 37° C., read-out: FESSIF Sol. As for the experimental part: FeSSIF Solubility Assay 1 mL of fed state simulated intestinal fluid (FeSSIF), prepared using FaSSIF/FeSSIF/FaSSGF powder (Biorelevant.com) and pH 5 acetate buffer, was added to 1.0 mg of compound and then incubated for 24 h (Bioshake iQ, 650 rpm, 37° C.). Following filtration under positive pressure, the concentration of compound in solution was assessed by LC-UV in comparison to the response for a calibration standard of known concentration (250 μM). FeSSIF solubility results are described in Tables 1-2.

The mark [8] stands for this setting: equilibrium dialysis 4 hours 37° C.
[9] abbreviates: HCT116 cells pre-dosed with 1 μM Encorafenib, read-out: pERK HCT116 dimer (1 hr) pIC50 (converted).
The mark [10] stands for this setting: equilibrium dialysis 4 hours at 37° C.

For the compound `O=C1CCc2c(Oc3ccc4c(c3)CC(c3nc(-c5ccccc5F)c[nH]3)CO4)ccnc2N1` (centres unmarked) [Compound 3, 5-[3-[4-(2-fluorophenyl)-1H-imidazol-2-yl]chroman-6-yl]oxy-3,4-dihydro-1H-1,8-naphthyridin-2-one], the “mPPB (% free)” value in data set [1] (setting [8]) came out at 0.5 % free. In addition, the figures for the microsomal CLint at 1 μM in data set [2] and in data set [3] were 30.3 µL/min/mg and 34.4 µL/min/mg, respectively. Further, the IC50 is 0.112 µM in data set [4] (setting [9]) and 0.0437 µM in data set [6]. Moreover, the “hPPB (% free)” value in data set [5] (setting [8]) turned out to be 0.2 % free.

For `COc1ncc(-c2c[nH]c(C3COc4ccc(Oc5ccnc6c5CCC(=O)N6)cc4C3)n2)c(OC)n1` (centres unmarked) [Compound 18, 5-[3-[4-(2,4-dimethoxypyrimidin-5-yl)-1H-imidazol-2-yl]chroman-6-yl]oxy-3,4-dihydro-1H-1,8-naphthyridin-2-one], the “mPPB (% free)” value in data set [1] (setting [8]) was determined as 2.5 % free. The microsomal CLint at 1 μM in data set [2] was determined as 71.1 µL/min/mg; in data set [3], 32.9 µL/min/mg. In addition, the IC50 in data set [4] (setting [9]) is 3.63 µM; in data set [6] it was 10 µM. The “hPPB (% free)” value in data set [5] (setting [8]) stood at 1.2 % free.

For `CN1CCN(Cc2cc(C(F)(F)F)c3nc(C4COc5ccc(Oc6ccnc7c6CCC(=O)N7)cc5C4)[nH]c3c2)CC1` (centres unmarked) [Compound 28], in data set [1] (setting [8]), the “mPPB (% free)” value was found to be 0.5 % free. Besides, the microsomal CLint at 1 μM is 68.1 µL/min/mg in data set [2] and 31.1 µL/min/mg in data set [3]. In data set [5] (setting [8]), the “hPPB (% free)” value is 0.1 % free. The IC50 in data set [6] was 1.82 µM.

Take `Cn1cc(-c2c[nH]c(C3COc4ccc(Oc5ccnc6c5CCC(=O)N6)cc4C3)n2)cn1` (centres unmarked) [Compound 108, 5-[3-[4-(1-methylpyrazol-4-yl)-1H-imidazol-2-yl]chroman-6-yl]oxy-3,4-dihydro-1H-1,8-naphthyridin-2-one]: the IC50 is 0.389 µM in data set [4] (HCT116 cells, dimer, read-out: pERK HCT116 dimer (1 hr) plC50 (converted)); 6.31 µM in data set [6]; above 1 µM in data set [7].

As to `Cc1nn(C)cc1-c1c[nH]c(C2COc3ccc(Oc4ccnc5c4CCC(=O)N5)cc3C2)n1` (centres unmarked) [Compound 109, 5-[3-[4-(1,3-dimethylpyrazol-4-yl)-1H-imidazol-2-yl]chroman-6-yl]oxy-3,4-dihydro-1H-1,8-naphthyridin-2-one], the solubility thermodynamic at 24 h in the data set “FeSSIF solubility assay” is below 1.1 µg/mL. For the same compound, in data set [7], the IC50 is above 1 µM.

In the case of `c1ccc(-c2c[nH]c(C3COc4ccc(Oc5ccnc(Nc6nccs6)c5)cc4C3)n2)cc1` (centres unmarked) [Compound 141], the “mPPB (% free)” value in data set [1] (setting [10]) turned out to be 0.5 % free. Further, the microsomal CLint at 1 μM in data set [2] (37° C.) turned out to be 1 µL/min/mg; in data set [3] (37° C.), 21.8 µL/min/mg. Besides, in data set [5] (setting [10]), the “hPPB (% free)” value was below 0.1 % free. Moreover, the IC50 in data set [7] is above 1 µM.

`O=C(NC1CC1)c1cc(Oc2ccc3c(c2)CC(c2nc(-c4ccccc4)c[nH]2)CO3)ccn1` (centres unmarked) [Compound 158, N-cyclopropyl-4-[3-(4-phenyl-1H-imidazol-2-yl)chroman-6-yl]oxy-pyridine-2-carboxamide]: the “mPPB (% free)” value in data set [1] (setting [10]) was 0.2 % free. For the same compound, the microsomal CLint at 1 μM is 21.3 µL/min/mg in data set [2] (37° C.) and 62.8 µL/min/mg in data set [3] (37° C.). In data set [5] (setting [10]), the “hPPB (% free)” value is given as 0.3 % free. In addition, the IC50 in data set [7] was 0.741 µM.

What is called microsomal CLint is the capacity of the preparation to metabolise the compound, expressed as a volume cleared per time.
